Patent publication US9648880B2, “Antifungal agents and uses thereof” (University of Massachusetts, priority 2012, dated 2017)

How the values were obtained:
Type in all cases: cell-based, Candida albicans
C. albicans SC5314 = assay: alamarBlue-based polystyrene adhesion assay; details: for C. albicans adhesion to polystyrene: 25 μM
Excerpt: We prioritized the candidate compounds by testing the dose-dependence of their effects. Because of the laborious washing required to remove background crystal violet dye staining, we developed adhesion assays using alternative detection reagents. Previous experiments screens have used the vital dye alamarBlue to measure Candida viability (Lafleur, J. Antimicrob Chemother. 66: 820-826, 2011; Youngsaye supra), so we tested this reagent as a way to measure cells remaining adhered after washing. […] The majority of the reordered compounds were effective at reducing Candida adhesion at 50 μM, the concentration originally tested during the screen. […] Although compounds that were still effective at 25 μM were less generally less so at 7.5 μM (FIG. 1C), many candidates still reduced adhesion by >50% at this lower concentration.
Overnight cultures of SC5314 and edt1^−/− cells were grown and plated onto Immulon 2HB 96-well microtiter plates and treated with small molecules as described above. Following incubations, media was decanted and plates were washed twice with 100 μl/well PBS. alamarBlue (Life Technologies) was resuspended to a final concentration of 5% in RPMI buffered with 0.165 M MOPS and then 100 μl was added to each well, followed by further incubation for 2 hours at 37° C. Fluorescence signals at 555Ex/585Em were read using a SpectraMax M5 Plate reader (Molecular Devices).

C. albicans = assay: pretreatment (pre-coating) of polystyrene, then adhesion assay
Description: FIGS. 11A-11D. Compound #4 can coat surfaces and reduce subsequent fungal adhesion. […] is a graph showing the results of pretreatment of polystyrene with candidate compounds. Indicated compounds at 50 μM were incubated in polystyrene 96-well plates overnight. Wells were washed three times with 100 μl of PBS. C. albicans adhesion was then measured using the vital dye alamarBlue, with no additional drug treatment. FIG. 11B is a graph showing titration of compounds #1, 4 and 9 for pre-binding to polystyrene. Indicated concentrations of compounds were pre-incubated with polystyrene plates as above prior to the adhesion assays. FIG. 11C is a graph showing the inhibition of adhesion by pretreatment of C. albicans SC5314 cells with compound #4 prior to introduction to plastic. SC5314 cells were treated with 25 μM compound #4 or DMSO in liquid culture prior to their introduced into polystyrene plates. Cells were washed with PBS prior to resuspension into SCM and seeding into 96-well plates for adhesion assays using alamarBlue detection of remaining cells. The pretreated cells were assayed alongside a standard adhesion assay in which compound #4 and the cells were coincubated with the plastic simultaneously. FIG. 11D is a graph showing the results of an assay performed as in FIG. 11C, except that SC5314-GFP cells were used, and then detected via fluorescence measurement. edt1 indicates non-adherent mutant cells, PBS indicates background fluorescence in absence of cells.
Because compounds #4 and #9 contain a nitrophenyl group (FIG. 3A), solutions containing these appear yellow. […] To test this idea, we preincubated polystyrene plates with each of the compounds that affect adhesion to polystyrene, washed to remove unbound compound molecules, and then added C. albicans cells to measure adhesion without further addition of compound.
To distinguish the three pre-coating compounds, we then titrated them in this pre-coating assay (FIG. 11B). […] We also tested whether compound #4 could affect fungal adhesion when it was used to pre-coat C. albicans cells rather than the polystyrene surface. […] We conclude that compound #4 has the ability to make polystyrene and the C. albicans cell surface less amenable to subsequent adhesion.

[1] = test system: C. albicans SC5314-GFP biofilm; assay: biofilm formation on silicone elastomers; details: for dry weight of biofilm / biofilm formation, visual inspection: 50 μM, 60 hrs; for biofilm formation, visual inspection: silicone mesh
Description: FIGS. 5A-5C. Effect of small molecules on biofilm formation in vitro. FIG. 5A is a series of photographs showing biofilm formation on silicone elastomers. Biofilm assay was performed with SC5314-GFP and edt1^Δ/Δ-GFP and photographed after 60 hrs. Indicated compounds were added at 50 μM. Turbid medium indicates planktonic cells unattached to silicone elastomers when biofilm formation is inhibited. Clear medium with the cell attached to the silicone elastomer indicate establishment of functional biofilm. Each treatment was done in triplicate. FIG. 5B is a graph showing quantitation of turbidity of medium. Media was removed from the wells, vortexed vigorously and the OD at 600 nm was measured in a spectrophotometer. FIG. 5C is a graph showing quantitation of dry weight of biofilm. Dry weight in mg of air-dried silicone elastomers.
Fungal biofilm formation on implanted medical devices is a serious medical problem because these biofilms can lead to life-threatening systemic infections. An established in vitro assay to study device colonization makes use of silicone mesh as a surrogate surface (Nobile, 2006). We tested how the compounds that affected polystyrene adhesion (FIG. 1) would affect biofilm formation by visual inspection of the biofilms formed, by measuring the optical density of the supernatant liquid cultures, and by measuring their dry weights. […] Therefore, compounds #4 and Q1 were effective inhibitors of both hyphal morphogenesis (FIG. 4) and biofilm formation on silicone mesh (FIG. 5).
We adapted a published method (Nobile, 2006, supra). Autoclaved, pre-weighed silicone mesh squares (Bentec, Catalog Number PR72034-04N) were incubated overnight at 37° C. with undiluted bovine serum. Following washing with PBS, the squares were transferred to 12-well plates and incubated with 0.5 OD/ml SC5314-GFP cells in Spider medium (with or without drugs as indicated), for 90 min at 37° C., shaking at 200 rpm. Squares were washed in PBS and transferred to new 12-well plates containing fresh Spider medium with fresh drugs and incubated for 60 hrs in a 37° C. shaker at 200 rpm. The plates were then photographed, the liquid media were collected for A600 nm measurements, and the dry weights of the bound biofilms were measured following drying of the silicone squares in a chemical hood.

| SMILES | C. albicans adhesion to polystyrene (C. albicans SC5314) | synergy on adhesion upon combining compound #4 and compound #12 (C. albicans SC5314; #4 1.5 μM with #12 4 and 6 μM) | effect on adhesion of compound alone (C. albicans SC5314; compound #4 1.5 μM, compound #12 4 and 6 μM) | subsequent adhesion of C. albicans to pre-coated polystyrene (C. albicans; 12.5 μM or below) | subsequent adhesion of C. albicans to pre-coated polystyrene (C. albicans; 25 μM) | subsequent adhesion of C. albicans to pre-coated polystyrene (C. albicans; 50 μM, overnight, washed) | dry weight of biofilm [1] | biofilm formation, visual inspection [1] | biofilm formation on silicone mesh ([1]; Example 14) |
| --- | --- | --- | --- | --- | --- | --- | --- | --- | --- |
| Cc1ccc(C(=O)N2CCN(c3ccc([N+](=O)[O-])cc3)CC2)cc1Cl [Compound 4] | effective adhesion inhibitors | did not further reduce adhesion | partial effects | much less so | strongly inhibitory | efficiently inhibited subsequent adhesion | most effective at reducing biofilm formation | most effectively kept the cells dispersed in the media rather than on the mesh | effective inhibitors of both hyphal morphogenesis and biofilm formation on silicone mesh |
| O=C(c1ccc(Cl)c(Cl)c1)N1CCN(c2ccc([N+](=O)[O-])cc2)CC1 [Compound 9] | effective adhesion inhibitors |  |  | much less so | strongly inhibitory | efficiently inhibited subsequent adhesion | most effective at reducing biofilm formation | most effectively kept the cells dispersed in the media rather than on the mesh |  |
